Consider six sequences from US6881824B1, “Peptides suitable for use in antigen specific immunosuppressive therapy” (Akzo Nobel N.V., priority 1996, dated 2005).

In assay [1] the test system is PBMC from RA patients and healthy controls carrying the DR4 (DRB1*0401) specificity. As to the kind of experiment: Proliferative responses of blood mononuclear cells, RA patients and healthy donors taken together. It counts as cell-based, human. To be noted: for Responses to the individual peptides (PBMC proliferation), identifying T-cell epitopes: any donor. The method, then:
(§1) In order to identify T-cell epitopes within HC gp-39, 59 peptides of 16 AA in length, overlapping by 10 AA were tested for their capacity to induce a proliferative response in PBMC from RA patients and healthy controls carrying the DR4 (DRB1*0401) specificity (Table 1).
(§2) PBMC obtained from heparinized venous peripheral blood were isolated by standard centrifugation on a Ficoll-Paque gradient. Cells were cultured in four-fold at a concentration of 1,5×10^5 cells/well in medium supplemented with 10% heat-inactivated, autologous plasma, L-glutamine, 2-ME and antibiotics in flatbottomed microtiter plates. Cells were incubated in medium alone or in the presence of phytohaemagglutinin (PHA) (2:5 μg/ml) to assert cell viability, or in the presence of 10 or 100 μg/ml of the HC gp-39-derived peptides. In several cases, sets of 2 or 3 sequential peptides were tested due to limited PBMC numbers of individual donors. Cultures were incubated in a total volume of 210 μl for 7 days at […] in a humidified atmosphere of 5% CO2. Cultures were pulsed during the last 18 hours with 0.25 μCi ^3H-thymidine ([^3H]TdR). Cells were harvested on glassfiber filters and [^3H] TdR incorporation was measured by gas scintillation (Packard Matrix 96 βcounter). Only peptides inducing a proliferative response at both 10 and 100 μg/ml were considered to contain a T-cell epitope. Responses were defined positive if stimulation index values (SI, antigen-specific counts per 5 min (cp5 m)/background cp5 m) exceeded or equaled 2.
(§3) T-cell reactivity to HC gp-39-derived peptide as analyzed by measuring the PBMC proliferative response in DR4 (DRB1*0401)-positive RA patients and healthy donors. Proliferative responses were tested in autologous plasma. In Table IIIA and IIIB the results of 7 experiments are presented showing the responses of RA patients (Table IIIA) and the responses of healthy donors (Table IIIB) to 59 overlapping sequences derived from HC gp-39.

For assay [2], the system named is PBMC from healthy donors carrying the DR4 (DRB1*0401) specificity. As to the kind of experiment: Peptide-induced proliferative responses of PBMC from healthy donors. In kind it is cell-based, human. To be noted: for Peptide-induced proliferative response of PBMC, HD 230: healthy donor 230, 0401, R; for Peptide-induced proliferative response of PBMC, HD 235: healthy donor 235, 0401, R; for Responses induced only in healthy donors: healthy donors 230, 235. As to the method: Peripheral blood samples from 5 healthy donors carrying the DR4(DRB1*0401) specificity were obtained with informed consent and included in this study as a control.
as §1, §2, §3

Assay [3] concerns the target T1, DR4 (DRB1*0401) molecules (Homo sapiens, UniProt P01903+P01911, A100K/A169T/F76Y/I96L/K127E/L162R/M171V/N62H/P40V/Q125Y/R42H/S133A/S149N/S66Y/V115G/V209L/W38E).
T1 construct: molecules were purified from the homozygous EBV-transformed human B lymphoblastoid cell lines Huly138IC2 and BM92 using the mAb; endogenous in cells
As to the kind of experiment: Peptide HLA-DR binding assay (semi-quantitative competition binding). To be noted: for IC50: competition with biotinylated marker peptide HA 309 Y→F, pH5.0, 44 hr RT. As to the method:
DR4 (DRB1*0401) and DR4 (DRB1*0404) molecules were purified from the homozygous EBV-transformed human B lymphoblastoid cell lines Huly138IC2 and BM92 using the mAb t243, directed against a monomorphic determinant on the DR-complex (Lampson, L. A and R. Levy (1980), J. Immunol. 125:293 299).
The peptide binding studies were performed using a semi-quantitative competition binding assay (Joosten et al 1994, Int. Immunol. 6, 751). Briefly, purified HLA-DR molecules (30 nM DR4(DRB1*0401) or 15 nM DR4 (DRB1*0404) were incubated at pH5.0 with 50 nM biotinylated marker peptide (HA 309y→F) and a concentration range of competitor peptide in a final volume of 25 μl binding buffer (PBS containing 0.01% […], 0.05% NP-40, 5% DMSO, 1 mM AEBSF, 1 mM N-ethyl maleimide, 8 mM EDTA and 10 μm pepstatin A). After 44 hr of incubation at RT, HLA DR bound marker peptide was separated from free marker peptide using a 96 well vacuum dotblot apparatus (Hybri. dot, BRL) and a nitrocellulose membrane (Hybond ECL, Amersham, UK). The nitrocellulose filters were blocked with 0.5% DNA blocking reagent (Boehringer) in 0.1 M maleic acid, 150 mM NaCl, pH7.5.
After 0.5-1 hr, the filters were washed in PBS, 0.05% Tween 20 (Sigma) and incubated with Strepcavidin-HRPO (Southern Biotechnology) in a 1:10.000 dilution. Biotinylated peptides were detected by enhanced chemiluminescence using a Western Blot ECL kit (Amersham). Exposure of the preflashed films (Hyperfilm-ECL, Amersham) was for 10 min. The spots were analysed by scanning the films and using Image Quant/Excel software for analysis.
The affinity of a given peptide for binding DRB1*0401-encoded molecules was related to competition with the marker peptide. This relative binding affinity was defined as the peptide concentration at which the signal was reduced to 50% (IC50).

In assay [4] the test system is PBMC from RA patients carrying the DR4 (DRB1*0401) specificity. Description: Peptide-induced proliferative responses of PBMC from RA patients. In kind it is cell-based, human. To be noted: for Peptide-induced proliferative response of PBMC, RA 272: RA patient 272, 0401, R; for Peptide-induced proliferative response of PBMC, RA 276: RA patient 276, 0401, R; for Peptide-induced proliferative response of PBMC, RA 286: RA patient 286, 0401, R. As to the method:
This study included 7 DR4(DRB1*0401)-positive patients diagnosed as suffering from RA according to the ARA criteria (Arnett et al., (1988), Arthritis Rheum. 31, 315). Peripheral blood samples were obtained with informed consent. There were five women and two men aged 46-79 years. Their duration of disease ranged from over 10 to over 30 years. Three out of 7 patients had at least 3 swollen joints. […] All patients were on medication: Four patients were treated with prednisone, three patients received anti-rheumatic agents and 4 patients were treated with NSAID's as well.
as §1, §2, §3

Setting [5] is: 100 and 10 microgram/ml, 7 days, 3H-thymidine incorporation.

Ends that are not written are not given here.

In the case of “DYAVGYMLRLGAPASK [compound 37, DYAVGYMLRLGAPASK]”, the “Responses to the individual peptides (PBMC proliferation), identifying T-cell epitopes” value (“Responses to the individual peptides” for short) in assay [1] is recorded as “observed in one or more donors”. In addition, the “Peptide-induced proliferative response of PBMC, HD 155” value in assay [2] (healthy donor 155, 0401, R, 100 and 10 microgram/ml, 7 days, 3H-thymidine incorporation) is “pos (positive responses to both 100 and 10 microgram/ml of peptide or sets of peptides (SI>2 were regarded positive))”. Further, the “Presence of T-cell epitopes confirmed by PBMC of healthy donor 230” value (“Presence of T-cell epitopes confirmed” below) in assay [2] is “confirmed the presence of T-cell epitopes”. Besides, in assay [2] (setting [5]), the “Peptide-induced proliferative response of PBMC, HD 230” value is “pos (positive responses to both 100 and 10 microgram/ml of peptide or sets of peptides (SI>2 were regarded positive))”; the “Peptide-induced proliferative response of PBMC, HD 235” value is “pos (positive responses to both 100 and 10 microgram/ml of peptide or sets of peptides (SI>2 were regarded positive))”. The “Relative affinity of binding to DR4 (DRB1*0401), in words” value (“Relative affinity of binding to DR4” for short) in assay [3] is on record as “relatively high affinity”. This sequence also registered a concentration for half-maximal inhibition (IC50) in assay [3] (Table IIIA) below 1 µM. The same sequence showed an IC50 in assay [3] (Table IIIB) below 1 µM. The “Peptide-induced proliferative response of PBMC, RA 272” value in assay [4] (setting [5]) is “pos (positive responses to both 100 and 10 microgram/ml of peptide or sets of peptides (SI≧2 were regarded positive))”. For the same sequence, the “Response of PBMC from RA patient 272 to individual peptides, in words” value (shortened to “Response of PBMC … in words”) in assay [4] is on record as “appeared to respond”.
On to “GRSFTLASSETGVGAP [compound 41, GRSFTLASSETGVGAP]”, for which the “Responses to the individual peptides” value in assay [1] is on record as “observed in one or more donors”. In assay [2] (setting [5]), the “Peptide-induced proliferative response of PBMC, HD 235” value is “pos (positive responses to both 100 and 10 microgram/ml of peptide or sets of peptides (SI>2 were regarded positive))”. For the same sequence, in assay [2], the “Responses induced only in healthy donors” value is “induced only responses in healthy donors”. Also, the “Relative affinity of binding to DR4” value in assay [3] is on record as “relatively high affinity”. In assay [3] (Table IIIB), this sequence displayed an IC50 below 1 µM.
On to “LDRFLCTHIIYSFANI [compound 5, LDRFLCTHIIYSFANI]”, for which the “Responses to the individual peptides” value in assay [1] was “observed in one or more donors”. Moreover, in assay [2], the “Presence of T-cell epitopes confirmed” value is recorded as “confirmed the presence of T-cell epitopes”. Moreover, the “Peptide-induced proliferative response of PBMC, HD 230” value in assay [2] (setting [5]) is “pos (positive responses to both 100 and 10 microgram/ml of peptide or sets of peptides (SI>2 were regarded positive))”. The “Relative affinity of binding to DR4” value in assay [3] is listed as “relatively high affinity”. Further, the IC50 in assay [3] (Table IIIA) and in assay [3] (Table IIIB) was below 1 µM throughout. In addition, the “Peptide-induced proliferative response of PBMC, RA 259” value in assay [4] (RA patient 259, 0401, R, 100 and 10 microgram/ml, 7 days, 3H-thymidine incorporation) is “pos (positive responses to both 100 and 10 microgram/ml of peptide or sets of peptides (SI≧2 were regarded positive))”. Also, in assay [4] (setting [5]), the “Peptide-induced proliferative response of PBMC, RA 272” value was “pos (positive responses to both 100 and 10 microgram/ml of peptide or sets of peptides (SI≧2 were regarded positive))”. Moreover, in assay [4], the “Response of PBMC … in words” value is “appeared to respond”.
Consider “PNLKTLLSVGGWNFGS [compound 12, PNLKTLLSVGGWNFGS]”, for which, in assay [1], the “Responses to the individual peptides” value is “observed in one or more donors”. Also, the “Peptide-induced proliferative response of PBMC, HD 230” value in assay [2] (setting [5]) is “pos (positive responses to both 100 and 10 microgram/ml of peptide or sets of peptides (SI>2 were regarded positive))”. Also, the “Responses induced only in healthy donors” value in assay [2] is given as “induced only responses in healthy donors”. Further, the “Relative affinity of binding to DR4” value in assay [3] is reported as “relatively high affinity”. The sequence also came in with a half-maximal inhibitory concentration (IC50) in assay [3] (Table IIIB) below 1 µM.
“QHLDFISIMTYDFHGA [peptide 30, QHLDFISIMTYDFHGA]”: the “Responses to the individual peptides” value in assay [1] is given as “observed in one or more donors”. The “Peptides or sets of peptides most frequently recognized” value in assay [1] (overall, all donors) is “most frequently recognized”. In assay [2], the “Presence of T-cell epitopes confirmed” value is “confirmed the presence of T-cell epitopes”. For the same sequence, the “Peptide-induced proliferative response of PBMC, HD 230” value in assay [2] (setting [5]) is “pos (positive responses to both 100 and 10 microgram/ml of peptide or sets of peptides (SI>2 were regarded positive))”. For the same sequence, the “Relative affinity of binding to DR4” value in assay [3] is “relatively high affinity”. The sequence also registered an IC50 in assay [3] (Table IIIA) below 1 µM. In assay [3] (Table IIIB), this sequence had an IC50 below 1 µM. The “Peptide-induced proliferative response of PBMC, RA 262” value in assay [4] (RA patient 262, 0401, R, 100 and 10 microgram/ml, 7 days, 3H-thymidine incorporation) is “pos (positive responses to both 100 and 10 microgram/ml of peptide or sets of peptides (SI≧2 were regarded positive))”. Besides, in assay [4] (setting [5]), the “Peptide-induced proliferative response of PBMC, RA 272” value is “pos (positive responses to both 100 and 10 microgram/ml of peptide or sets of peptides (SI≧2 were regarded positive))”; the “Peptide-induced proliferative response of PBMC, RA 276” value was “pos (positive responses to both 100 and 10 microgram/ml of peptide or sets of peptides (SI≧2 were regarded positive))”; the “Peptide-induced proliferative response of PBMC, RA 286” value is “pos (positive responses to both 100 and 10 microgram/ml of peptide or sets of peptides (SI≧2 were regarded positive))”. Besides, the “Response of PBMC … in words” value in assay [4] is listed as “appeared to respond”.
“THIIYSFANISNDHID [compound 6, THIIYSFANISNDHID]”: in assay [1], the “Responses to the individual peptides” value is reported as “observed in one or more donors”. In addition, in assay [2], the “Presence of T-cell epitopes confirmed” value was “confirmed the presence of T-cell epitopes”. Moreover, the “Peptide-induced proliferative response of PBMC, HD 230” value in assay [2] (setting [5]) was “pos (positive responses to both 100 and 10 microgram/ml of peptide or sets of peptides (SI>2 were regarded positive))”. Besides, the “Relative affinity of binding to DR4” value in assay [3] is listed as “relatively high affinity”. This sequence yielded a concentration for half-maximal inhibition (IC50) in assay [3] (Table IIIA) below 1 µM. Further, the IC50 in assay [3] (Table IIIB) was below 1 µM. Further, in assay [4] (setting [5]), the “Peptide-induced proliferative response of PBMC, RA 272” value is “pos (positive responses to both 100 and 10 microgram/ml of peptide or sets of peptides (SI≧2 were regarded positive))”; the “Peptide-induced proliferative response of PBMC, RA 276” value was “pos (positive responses to both 100 and 10 microgram/ml of peptide or sets of peptides (SI≧2 were regarded positive))”; the “Peptide-induced proliferative response of PBMC, RA 286” value is “pos (positive responses to both 100 and 10 microgram/ml of peptide or sets of peptides (SI≧2 were regarded positive))”. Further, the “Response of PBMC … in words” value in assay [4] is reported as “appeared to respond”.
